Measured values published in patent publication US5599806A, “Hydrazino and hydroxyamino-14-β-hydroxyandrostane derivatives active on the cardiovascular system processes for their preparation and pharmaceutical compositions containing same” (Sigma-Tau Industrie Farmaceutiche Riunite S.p.A., priority 1994, dated 1997).
pIC50: −log10 of the molar value. Like-named read-outs stand apart in the source and are kept apart here.

Tests used:
[1] = test system: Na^+, K^+ -ATPase; details: reported in literature / other filings; cited from earlier work
[2] = reported in literature; cited from earlier work
[3] = biological target: Na^+, K^+ -ATPase receptor; assay: displacement of the specific ^3 H-ouabain binding from the Na^+, K^+ -ATPase receptor; details: ^3 H-ouabain displacement, purified Na^+
Text: a) displacement of the specific ^3 H-ouabain binding from the Na^+, K^+ -ATPase receptor purified according to Jorghensen (Jorghensen P., BBA, 1974, 356, 36) and Erdmann (Erdmann E. et al., Arzneim. Forsh., 1984, 34, 1314);

[4] = biological target: T1, purified Na^+, K^+ -ATPase (Canis lupus familiaris, UniProt P50997); assay: inhibition of the activity of the purified Na^+, K^+ -ATPase (hydrolysis of ^32 P-ATP); type: biochemical
T1 construct: from tissue
Text: To test the affinity for the receptor site of the Na^+, K^+ -ATPase and the inhibition of the activity of the enzyme, the following tests were used:
b) inhibition of the activity of the purified Na^+, K^+ -ATPase measured as % of hydrolysis of ^32 P-ATP in the presence and in the absence of the tested compound (Doucet A. et al., Am. J. Physiol., 1986, 251, F851)

[5] = test system: spontaneous hypertensive rats (MHS); assay: effect of 5 week-treatment in spontaneous hypertensive rats (MHS) on the development of hypertension (SBP and HR, tail cuff method); type: in vivo, rat; details: 5 weeks, in Methocel 0.5% w/v; for SBP: controls 170 +/- 5.5; for HR: controls 378 +/- 12.0
Experimental: Systolic blood pressure (SBP) and hear rate (HR) were measured, by the tail cuff method, in young prehypertensive male rats (MHS or SHR) strains before the development of hypertension (4 weeks of age) for recording the basal values of SBP. Groups of 7 rats were formed and subdivided in control and treated groups.
The compound, suspended in Methocel 0.5% (w/v), was orally given daily for at least 5 weeks to the treated groups. The control group received only Methocel.
SBP and HR were measured weekly 6 and 24 hrs after treatment. After 5 weeks of treatment, when hypertension was fully developed in the control group (9 weeks of age), washout was started for at least one week, to verify whether the treatment maintained blood pressure low or reestablished the basal values.
(Takeda K. et al., Japan J. Pharmacol., 1979, 29, 171; Takeda K. et al. Japan J. Pharmacol., 1982, 32, 283; Richer C. et al. Eur. J. Pharmacol, 1978, 47,393).

Row | Compound | inhibition of Na^+, K^+ -ATPase [1] | positive inotropic activity [2] | Binding ^3 H-Ouab. Displacement (-log IC50) [3] | IC50 ([4]; hydrolysis of ^32 P-ATP, purified Na^+, K^+ -ATPase, read-out: Inhibitory Activity (-log IC50) (converted)) [µM] | SBP ([5]; 1 mg/Kg/os daily) | HR ([5]; 1 mg/Kg/os daily) | SBP ([5]; 10 mg/Kg/os daily) | HR ([5]; 10 mg/Kg/os daily) | pIC50 [4]
1 | C[C@]12CC[C@H](O)C[C@H]1CC[C@@H]1[C@@H]2CC[C@]2(C)[C@@H](C=NNC(=N)N)CC[C@]12O [17β-guanidinoiminomethyl-5β-androstane-3,β,14β-diol] | weak inhibitors of Na^+, K^+ -ATPase | weak positive inotropic agents |  |  |  |  |  |  | 
2 | C[C@]12CC[C@H](O)C[C@H]1CC[C@@H]1[C@@H]2CC[C@]2(C)C(=NNC(=N)N)CC[C@]12O [17-guanidinoimino-5β-androstane-3β,14β-diol] | weak inhibitors of Na^+, K^+ -ATPase |  |  |  |  |  |  |  | 
3 | CN(C)CCONC[C@H]1CC[C@]2(O)[C@@H]3CC[C@@H]4C[C@@H](O)CC[C@]4(C)[C@H]3CC[C@]12C [Comp. I-am, 17β-(2-Dimethylaminoethoxyamino)methyl-5β-androstane-3β,14β-diol] |  |  | 6.1 | 50.1 | 152 +/- 5.3 mm Hg | 365 +/- 10.1 beats/min. | 149 +/- 4.5 mm Hg | 370 +/- 14.7 beats/min. | 
4 | CN(C)CCONC[C@H]1CC[C@]2(O)[C@@H]3CC[C@@H]4C[C@@H](OCCCN)CC[C@]4(C)[C@H]3CC[C@]12C [Comp. I-bb, 3β-(3-Aminopropoxy)-17β-(2-dimethylaminoethoxyamino)methyl-5β-androstane-14β-ol] |  |  | 6.3 |  | 153 +/- 6.2 mm Hg | 367 +/- 14.3 beats/min. | 150 +/- 4.2 mm Hg | 375 +/- 12.1 beats/min. | 4.50
